The results in this text go back to patent US11921120B2, “Compositions and methods for identifying and modulating metabolic health” (Duke University, priority 2015, dated 2024).

For data set [1], the system named is col5a1. The data set can be described thus: RT-PCR of col5a1 mRNA isoforms after Vivo-Morpholino injection. To be noted: serial intra-abdominal injection, 80 ng/mg vMO. It counts as in vivo, zebrafish. How it is done:
Zebrafish qRT-PCR. RNA extraction, PCR and quantitative RT-PCR (qRT-PCR) was performed as previously described using total RNA from dissected whole VAT tissue of 10 mm zebrafish. (Rawls J F, et al. (2007), PNAS 104(18):7622-7627.) VAT and SAT were dissected from adult Ekkwill strain wild-type zebrafish and used to assess plxnd1 mRNA levels (FIG. 18(B)). Samples contained 5-8 siblings or mutants per group, and qRT-PCR was ran with three biological replicate groups, and reactions ran in triplicate.
Zebrafish were raised under normal conditions until 30-50 days post fertilisation. Fish were anesthetised in 0.67 g/L MS222 and SL measured using an eyepiece reticle. Intra-abdominal injections were then performed on a Nanoject II injector (Drummond) as previously described. (McMenamin S K, et al (2013), Endocrinology 154(4):1476-1487.) At each injection, dosage was adjusted according to body weight (mg) using the following equation: mg=−48.10+7.36*SL+0.68*(SL-8.94)^2. (McMenamin S K, et al (2013), Endocrinology 154(4):1476-1487.) Concentration of individual compounds at injection were (relative to volume/mass of fish): 80 ng/mg col5a1-ile2 vMO (5′-[…]-3′; SEQ ID NO.: 55) or col5a1-e3i3 vMO (5′-[…]-3′; SEQ ID NO.: 56) (Gene-Tools, LLC), 100 μM EDHB (Sigma) and 80 ng/mg EdU. Control animals were injected with either a standard control vMO (5′-[…]-3′; SEQ ID NO.: 57) (Gene-Tools) or 0.1% DMSO.

For data set [2], the system named is Type V collagen (Col5). The data set can be described thus: Col5 immunofluorescence in VAT after vMO injection. The class given is in vivo, zebrafish. To be noted: endothelial cell and peri-adipocyte locations. How it is done:
Immunohistochemistry was performed as previously described (Kanther M, et al. (2011), Gastroenterology 141(1):197-207.) Immunohistochemistry was conducted with antibodies to Type V collagen (Col5) (Rockland, #600-401-107S), Laminin (Sigma, #L-9393), WCL15 (Romano N, et al. (1998), Anatomy and embryology 198(1):31-41; van der Sar A M, et al. (2004), Trends in microbiology 12(10):451-457), and Alexa 568 (Invitrogen, #A-1 1011). Transmission electron microscopy was carried out as described previously. (Flynn E J, et al. (2009), Journal of lipid research 50(8):1641-1652.) Whole 10-12 mm SL fish were processed for paraffin sectioning and Masson's trichrome, combined Masson's and Elastin, periodic acid Schiff (PAS) and Alcian Blue stains. (Sabaliauskas N A, et al. (2006), Methods 39(3):246-254.)
Zebrafish were raised under normal conditions until 30-50 days post fertilisation. Fish were anesthetised in 0.67 g/L MS222 and SL measured using an eyepiece reticle. Intra-abdominal injections were then performed on a Nanoject II injector (Drummond) as previously described. (McMenamin S K, et al (2013), Endocrinology 154(4):1476-1487.) At each injection, dosage was adjusted according to body weight (mg) using the following equation: mg=−48.10+7.36*SL+0.68*(SL-8.94)^2. […]

The nature of data set [3]: Turbidity assay of ECM extracted from VAT (in vitro fibrillogenesis). More on the design: species or system zebrafish. The following applies: ECM of sibling VAT, vMO injected before extraction. The text has this: To assess fibrillogenesis in plxnd1 mutant VAT, ECM is extracted from zebrafish VAT, and fibril polymerization and gel formation is induced in vitro (FIG. 13). Turbidity assays are used to determine the rate and ultimate extent of fibrillogenesis. ECM was purified from dissected zebrafish VAT (˜100 VATS per tube, triplicate tubes per condition) as previously described. (Uriel S, et al. (2009), Tissue engineering. Part C, Methods 15(3):309-321.) Urea extraction was allowed to proceed for 14-21 days at 4° C. Protein concentration (˜7 mg/ml) was assessed by the Bradford assay (Thermo Scientific). […] To induce fibril polymerization and gel formation, acetic acid was added to a pH of 7. Turbidity assays were conducted as previously described using a Spectronic 20D+ spectrometer (Thermo Scientific). (Wood G C & Keech M K (1960), The Biochemical journal 75:588-598.)

Regarding “col5a1-e3i3 vMO: Vivo-Morpholino 5′-GAGTTCCTACTTACCTCAAACACCT-3′ (SEQ ID NO.: 56) targeting zebrafish col5a1 exon 3-intron 3 boundary (all phosphorodiamidate morpholino (PMO); Vivo-Morpholino, delivery moiety not given here, further chemistry not fully specified)”, the “splicing of col5a1 (RT-PCR, mRNA isoform)” value in data set [1] is on record as “skipping of exon 3”.
For “col5a1-ile2 vMO: Vivo-Morpholino 5′-GAAACATGGATGCTACAGAGAGAGA-3′ (SEQ ID NO.: 55) targeting zebrafish col5a1 intron 1-exon 2 boundary (all phosphorodiamidate morpholino (PMO); Vivo-Morpholino, delivery moiety not given here, further chemistry not fully specified)”, the “Col5 protein levels (Col5 reactivity)” value in data set [2] was “significantly reduced”. In addition, the “splicing of col5a1 (RT-PCR, mRNA isoform)” value in data set [1] was “inclusion of part of intron 1”. The in vitro fibrillogenesis entry in data set [3] is “did not affect”.
